Source: patent US10941152B2, “Pyrazole compounds as modulators of FSHR and uses thereof” (TOCOPHERX, INC., priority 2014, dated 2021)

Key:
FSHR = biological target: T1, FSHR (Homo sapiens, UniProt P23945); assay: EC50 of cyclic AMP production in CHO FSHR cells + EC20 FSH (Assay A); format: cell-based; conditions: cyclic AMP production in CHO FSHR cells + EC20 FSH (0.265 pM), HTRF
T1 construct: expressed in transfected cells; host or cells: CHO (Cho-FSHR-LUC-1-1-43)
T1 sequence (P23945 18-695): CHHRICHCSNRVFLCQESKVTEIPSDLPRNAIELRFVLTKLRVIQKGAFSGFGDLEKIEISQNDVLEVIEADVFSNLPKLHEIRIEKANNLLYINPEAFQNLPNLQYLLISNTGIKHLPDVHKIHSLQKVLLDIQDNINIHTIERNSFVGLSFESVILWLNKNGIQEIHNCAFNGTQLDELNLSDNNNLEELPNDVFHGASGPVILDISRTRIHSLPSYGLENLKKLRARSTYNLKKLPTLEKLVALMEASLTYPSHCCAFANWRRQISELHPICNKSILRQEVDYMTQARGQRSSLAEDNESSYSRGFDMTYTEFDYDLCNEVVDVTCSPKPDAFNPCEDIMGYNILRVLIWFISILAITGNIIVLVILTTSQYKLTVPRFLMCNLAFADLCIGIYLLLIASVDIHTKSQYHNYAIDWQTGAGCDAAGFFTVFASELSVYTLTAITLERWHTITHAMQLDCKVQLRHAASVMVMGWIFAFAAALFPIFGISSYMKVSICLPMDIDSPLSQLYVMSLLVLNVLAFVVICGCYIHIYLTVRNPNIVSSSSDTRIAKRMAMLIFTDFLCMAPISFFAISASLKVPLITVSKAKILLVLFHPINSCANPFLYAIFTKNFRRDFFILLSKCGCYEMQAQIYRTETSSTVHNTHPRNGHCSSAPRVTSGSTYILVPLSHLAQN
How it was run: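 cAMP was detected by HTRF as the 665/620 nm ratio. The CHO-FSHR cells had first been exposed for 1 h at 37° C to test compound together with 0.265 pM FSH (EC20) and 200 μM IBMX. Responses are given as percent of the FSH standard maximum.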

[1] = biological target: T2, follicle-stimulating hormone (FSH) receptor (Rattus norvegicus, UniProt P20395); assay: Rat granulosa EC50 FSH (Assay B); format: cell-based
T2 construct: endogenous in cells; host or cells: rat granulosa cells
T2 sequence (P20395 18-692): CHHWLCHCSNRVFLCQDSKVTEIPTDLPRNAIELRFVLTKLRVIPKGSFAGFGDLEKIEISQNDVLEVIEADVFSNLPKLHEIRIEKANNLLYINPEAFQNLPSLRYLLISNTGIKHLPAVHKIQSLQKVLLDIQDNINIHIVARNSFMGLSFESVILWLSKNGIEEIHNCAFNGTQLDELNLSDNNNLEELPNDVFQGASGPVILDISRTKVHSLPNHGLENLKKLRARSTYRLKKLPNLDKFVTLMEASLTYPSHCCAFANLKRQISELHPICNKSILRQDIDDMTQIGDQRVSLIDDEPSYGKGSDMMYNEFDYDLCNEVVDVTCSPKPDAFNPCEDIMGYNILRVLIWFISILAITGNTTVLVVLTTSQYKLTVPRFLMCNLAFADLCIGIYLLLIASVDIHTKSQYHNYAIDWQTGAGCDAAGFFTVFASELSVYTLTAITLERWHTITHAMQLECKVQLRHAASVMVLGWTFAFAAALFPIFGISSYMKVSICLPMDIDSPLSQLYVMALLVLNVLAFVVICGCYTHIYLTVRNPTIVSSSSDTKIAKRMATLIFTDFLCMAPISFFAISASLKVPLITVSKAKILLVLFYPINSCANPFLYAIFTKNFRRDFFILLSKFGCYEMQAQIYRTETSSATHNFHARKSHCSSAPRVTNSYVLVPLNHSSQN
Description: Example 25. Rat granulosa EC50 FSH (Assay B)
The assay was performed pursuant to the teaching of Yanofsky et al. (2006) Allosteric activation of the follicle-stimulating hormone (FSH) receptor by selective, nonpeptide agonists (JBC 281(19): 13226-13233, which is incorporated by reference in the disclosure of the invention).

Compound | EC50 (FSHR) [nM] | EC50 [1] [nM]
COc1cc2c(cc1-c1cnn(C(N)=O)c1)-c1c(c(C(=O)N(C)C(C)(C)C)nn1-c1cc(Cl)cc(Cl)c1)CO2 [Compound 181, N-tert-butyl-8-(1-carbamoyl-1H-pyrazol-4-yl)-1-(3,5-dichlorophenyl)-7-methoxy-N-methyl-1,4-dihydrochromeno[4,3-c]pyrazole-3-carboxamide] | < 10 | 10 to 100
COc1cc2c(cc1-c1cnn(CCO)c1)-c1c(c(C(=O)N3CCOCC3(C)C)nn1-c1cc(F)cc(Cl)c1)CO2 [Compound 78, (1-(3-chloro-5-fluorophenyl)-8-(1-(2-hydroxyethyl)-1H-pyrazol-4-yl)-7-methoxy-1,4-dihydrochromeno[4,3-c]pyrazol-3-yl)(3,3-dimethylmorpholino)methanone] | < 10 | 10 to 100
COc1cc2c(cc1-c1cncc(C(N)=O)c1)-c1c(c(C(=O)N(C)C(C)(C)C)nn1-c1cc(C)cc(F)c1)CO2 [Compound 173] | < 10 | 10 to 100
COc1cc(Cl)cc(-n2nc(C(=O)N(C)C(C)(C)C)c3c2-c2cc(-c4cnn(CC(=O)O)c4)c(OC)cc2OC3)c1 [Compound 85, 2-(4-(3-(tert-butyl(methyl)carbamoyl)-1-(3-chloro-5-methoxyphenyl)-7-methoxy-1,4-dihydrochromeno[4,3-c]pyrazol-8-yl)-1H-pyrazol-1-yl)acetic acid] | 10 to 100 | > 500
COc1cc2c(cc1-c1cc(F)cc(C(=O)O)c1)-c1c(c(C(=O)N(C)C(C)(C)C)nn1-c1cc(Cl)cc(Cl)c1)CO2 [Compound 83, 3-(3-(tert-butyl(methyl)carbamoyl)-1-(3,5-dichlorophenyl)-7-methoxy-1,4-dihydrochromeno[4,3-c]pyrazol-8-yl)-5-fluorobenzoic acid] | < 10 | 101 to 500
COc1cc2c(cc1-c1cncc(CO)c1)-c1c(c(C(=O)N(C)C(C)(C)C#N)nn1-c1cc(Cl)cc(Cl)c1)CO2 [Compound 108, N-(2-cyanopropan-2-yl)-1-(3,5-dichlorophenyl)-8-(5-(hydroxymethyl)pyridin-3-yl)-7-methoxy-N-methyl-1,4-dihydrochromeno[4,3-c]pyrazole-3-carboxamide] | < 10 | 10 to 100
CONC(=O)c1cncc(-c2cc3c(cc2OC)OCc2c(C(=O)N4CCOCC4(C)C)nn(-c4cc(Cl)cc(Cl)c4)c2-3)c1 [Compound 96, 5-(1-(3,5-dichlorophenyl)-3-(3,3-dimethylmorpholine-4-carbonyl)-7-methoxy-1,4-dihydrochromeno[4,3-c]pyrazol-8-yl)-N-methoxynicotinamide] | < 10 | < 10
COc1cc2c(cc1-c1cnn(CCO)c1)-c1c(c(C(=O)N(C)C(C)(C)C)nn1-c1ccsc1)CO2 [Compound 76, N-tert-butyl-8-(1-(2-hydroxyethyl)-1H-pyrazol-4-yl)-7-methoxy-N-methyl-1-(thiophen-3-yl)-1,4-dihydrochromeno[4,3-c]pyrazole-3-carboxamide] | 10 to 100 | > 500
COc1cc(OC)cc(-n2nc(C(=O)N3CCOCC3(C)C)c3c2-c2cc(-c4cccnc4F)c(OC)cc2OC3)c1 [Compound 42, (1-(3,5-dimethoxyphenyl)-8-(2-fluoropyridin-3-yl)-7-methoxy-1,4-dihydrochromeno[4,3-c]pyrazol-3-yl)(3,3-dimethylmorpholino)methanone] | < 10 | 10 to 100
COc1cc(OC)cc(-n2nc(C(=O)N3CCOCC3(C)C)c3c2-c2cc(-c4cncc(C)c4)c(OC)cc2OC3)c1 [Compound 43, (1-(3,5-dimethoxyphenyl)-7-methoxy-8-(5-methylpyridin-3-yl)-1,4-dihydrochromeno[4,3-c]pyrazol-3-yl)(3,3-dimethylmorpholino)methanone] | < 10 | 10 to 100

The next lines start with the values.

EC50 (FSHR) [nM] | EC50 [1] [nM] | Compound
< 10 | 101 to 500 | COc1cc2c(cc1-c1ccn(C)n1)-c1c(c(C(=O)N3CCOCC3(C)C)nn1-c1cc(Cl)cc(Cl)c1)CO2 [Compound 9, (1-(3,5-dichlorophenyl)-7-methoxy-8-(1-methyl-1H-pyrazol-3-yl)-1,4-dihydrochromeno[4,3-c]pyrazol-3-yl)(3,3-dimethylmorpholino)methanone]
< 10 | 10 to 100 | COc1cc(Cl)cc(-n2nc(C(=O)N3CCOCC3(C)C)c3c2-c2cc(-c4ccn(C)n4)c(OC)cc2OC3)c1 [Compound 33, (1-(3-chloro-5-methoxyphenyl)-7-methoxy-8-(1-methyl-1H-pyrazol-3-yl)-1,4-dihydrochromeno[4,3-c]pyrazol-3-yl)(3,3-dimethylmorpholino)methanone]
< 10 | 10 to 100 | COc1cc2c(cc1-c1cc(C(N)=O)ncc1F)-c1c(c(C(=O)N3CCOCC3(C)C)nn1-c1cc(F)cc(F)c1)CO2 [Compound 72, 4-(1-(3,5-difluorophenyl)-3-(3,3-dimethylmorpholine-4-carbonyl)-7-methoxy-1,4-dihydrochromeno[4,3-c]pyrazol-8-yl)-5-fluoropicolinamide]
10 to 100 | 101 to 500 | COc1cc2c(cc1OC(C)CO)-c1c(c(C(=O)N(C)C(C)(C)C)nn1-c1ccsc1)CO2 (stereo not shown) [Compound 193, N-tert-butyl-8-(1-hydroxypropan-2-yloxy)-7-methoxy-N-methyl-1-(thiophen-3-yl)-1,4-dihydrochromeno[4,3-c]pyrazole-3-carboxamide]
10 to 100 | 101 to 500 | COc1cc2c(cc1-c1ccn(C)n1)-c1c(c(C(=O)N3CCC(O)CC3(C)C)nn1-c1cc(Cl)cc(Cl)c1)CO2 (stereo not shown) [Compound 7, (1-(3,5-dichlorophenyl)-7-methoxy-8-(1-methyl-1H-pyrazol-3-yl)-1,4-dihydrochromeno[4,3-c]pyrazol-3-yl)(4-hydroxy-2,2-dimethylpiperidin-1-yl)methanone]
< 10 | 10 to 100 | COc1cc(-c2cc3c(cc2OC)OCc2c(C(=O)N(C)C(C)(C)C)nn(-c4cc(Cl)cc(Cl)c4)c2-3)cc(C(N)=O)n1 [Compound 117, N-tert-butyl-8-(2-carbamoyl-6-methoxypyridin-4-yl)-1-(3,5-dichlorophenyl)-7-methoxy-N-methyl-1,4-dihydrochromeno[4,3-c]pyrazole-3-carboxamide]
< 10 | 10 to 100 | COc1cc2c(cc1-c1cc(C(N)=O)ccc1F)-c1c(c(C(=O)N(C)C(C)(C)C)nn1-c1cc(Cl)cc(Cl)c1)CO2 [Compound 93, N-tert-butyl-8-(5-carbamoyl-2-fluorophenyl)-1-(3,5-dichlorophenyl)-7-methoxy-N-methyl-1,4-dihydrochromeno[4,3-c]pyrazole-3-carboxamide]
< 10 | > 500 | COc1cc2c(cc1-c1c[nH]nn1)-c1c(c(C(=O)N(C)C(C)(C)C)nn1-c1ccsc1)CO2 [Compound 194, N-tert-butyl-7-methoxy-N-methyl-1-(thiophen-3-yl)-8-(1H-1,2,3-triazol-4-yl)-1,4-dihydrochromeno[4,3-c]pyrazole-3-carboxamide]
10 to 100 | 101 to 500 | COc1cc2c(cc1-c1cccc(C(=O)O)c1)-c1c(c(C(=O)N(C)C(C)(C)C)nn1-c1cc(Cl)cc(Cl)c1)CO2 [Compound 179]
10 to 100 | 101 to 500 | COc1cc2c(cc1-c1nccc(C(N)=O)n1)-c1c(c(C(=O)N(C)C(C)(C)C)nn1-c1cc(Cl)cc(Cl)c1)CO2 [Compound 111, N-tert-butyl-8-(4-carbamoylpyrimidin-2-yl)-1-(3,5-dichlorophenyl)-7-methoxy-N-methyl-1,4-dihydrochromeno[4,3-c]pyrazole-3-carboxamide]
